Values after ≈ are worked out from the molar mass of the structure shown. Active and inactive are the calls of the source. The calls are words filed in the database; no cut-off is given here.
Assays:
Cryptococcus neoformans = assay: Antifungal activity against Cryptococcus neoformans H99 assessed as fungal growth inhibition incubated for 2 days by broth serial dilution method; format: functional; conditions: H99, 48 h, time 2 day
Candida albicans = assay: Antifungal activity against Candida albicans SC5314 assessed as fungal growth inhibition incubated for 2 days by broth serial dilution method; format: functional; conditions: for Activity: time 2.0 day

Q: Which results are given for `CC(C)C[C@@H]1NC(=O)[C@H](C(C)C)NC1=O`?
A: MIC (Cryptococcus neoformans): 50 µg/mL (≈ 236 µM); Activity (Candida albicans): inactive

Q: `CC(=O)NCCc1c[nH]c2ccccc12` [NB-ACETYLTRYPTAMINE] was tested. Which MIC (Cryptococcus neoformans) did it give?
A: Its MIC is 200 µg/mL (≈ 989 µM).

Q: And the Activity (Candida albicans)?
A: The Activity was “inactive”.

Q: For `O=C1[C@H](Cc2ccccc2)NC(=O)[C@]2(O)CCCN12`, which MIC (Cryptococcus neoformans) is on record?
A: The MIC was 50 µg/mL (≈ 192 µM).

Q: And the Activity (Candida albicans)?
A: The Activity was “inactive”.

Q: How did the MIC (Cryptococcus neoformans) turn out when `CC(=O)Nc1ccccc1O` was run?
A: Its MIC is 50 µg/mL (≈ 331 µM).

Q: And the Activity (Candida albicans)?
A: Its Activity is “inactive”.

Q: Which results are given for `CC(=O)CC[C@@H]1OC(=O)C[C@H]1Nc1ccc(C(=O)O)cc1`?
A: MIC (Cryptococcus neoformans): 50 µg/mL (≈ 172 µM); MIC (Candida albicans; SC5314, 48 h, time 2 day): > 100 µg/mL

Q: For `OC(Cn1cncn1)(Cn1cncn1)c1ccc(F)cc1F` [FLUCONAZOLE], which MIC (Cryptococcus neoformans) is on record?
A: The MIC was 4 µg/mL (≈ 13.1 µM).

Q: Which MIC (Cryptococcus neoformans) does the source give for `Cc1cc(O)cc2cc3c(c(O)c12)C(=O)CC[C@@H]3O` here?
A: The MIC was 50 µg/mL (≈ 194 µM).

Q: And the Activity (Candida albicans)?
A: Its Activity is “inactive”.

Q: Which results are given for `Cc1c(C(=O)O)c(O)cc2c1C(=O)c1c(O)cc(O)cc1C2=O`?
A: MIC (Cryptococcus neoformans): 100 µg/mL (≈ 318 µM); Activity (Candida albicans): inactive

Q: `O=C1N[C@@H](Cc2ccccc2)C(=O)N2C[C@H](O)C[C@@H]12` was tested. Which MIC (Cryptococcus neoformans) did it give?
A: Its MIC is 50 µg/mL (≈ 192 µM).

Q: What about the Activity (Candida albicans) of the same compound?
A: Its Activity is “inactive”.

Q: With `O=C(O)c1c[nH]c2ccccc12` as the compound, how does the MIC (Cryptococcus neoformans) read?
A: The MIC was 12 µg/mL (≈ 74.5 µM).

Q: And the Activity (Candida albicans)?
A: Its Activity is “inactive”.

Q: With `CC(C)[C@@H]1NC(=O)[C@@H]2CCCN2C1=O` as the compound, how does the MIC (Cryptococcus neoformans) read?
A: The MIC was 100 µg/mL (≈ 510 µM).

Q: And the Activity (Candida albicans)?
A: The Activity was “inactive”.

Q: What does the source list for `C[C@]1(O)CC(=O)c2c(cc3cccc(O)c3c2O)C1`?
A: MIC (Cryptococcus neoformans): 50 µg/mL (≈ 194 µM); Activity (Candida albicans): inactive

Q: Which MIC (Cryptococcus neoformans) does the source give for `Cc1c(C(=O)O)c(O)cc2c1C(=O)c1c(O)cccc1C2=O` here?
A: The MIC was 100 µg/mL (≈ 335 µM).

Q: And the Activity (Candida albicans)?
A: Its Activity is “inactive”.

Q: What does the source list for `C/C=C/[C@H](O)[C@@H]1OC(=O)C[C@H]1Nc1ccc(C(=O)O)cc1`?
A: MIC (Cryptococcus neoformans): 25 µg/mL (≈ 85.8 µM); Activity (Candida albicans): inactive

Q: With `C[C@H](O)/C=C/[C@@H]1OC(=O)C[C@H]1Nc1ccc(C(=O)O)cc1` as the compound, how does the MIC (Cryptococcus neoformans) read?
A: The MIC was 100 µg/mL (≈ 343 µM).

Q: What about the Activity (Candida albicans) of the same compound?
A: The Activity was “inactive”.

Q: What does the source list for `CC(C)C[C@@H]1NC(=O)[C@@H]2C[C@@H](O)CN2C1=O`?
A: MIC (Cryptococcus neoformans): 25 µg/mL (≈ 110 µM); Activity (Candida albicans): inactive

Q: What does the source list for `O=c1[nH]c2ccccc2o1` [BENZOXAZOLINONE]?
A: MIC (Cryptococcus neoformans): 25 µg/mL (≈ 185 µM); Activity (Candida albicans): inactive

Q: How did the MIC (Cryptococcus neoformans) turn out when `C[C@@H]1NC(=O)[C@H](Cc2ccccc2)NC1=O` was run?
A: The MIC was 100 µg/mL (≈ 458 µM).

Q: And the Activity (Candida albicans)?
A: Its Activity is “inactive”.

Q: For `O=C1CNC(=O)[C@H](Cc2ccccc2)N1`, which MIC (Cryptococcus neoformans) is on record?
A: The MIC was 50 µg/mL (≈ 245 µM).

Q: And the Activity (Candida albicans)?
A: Its Activity is “inactive”.

Q: `CC(C)C[C@@H]1NC(=O)[C@@H]2CCCN2C1=O` was tested. Which MIC (Cryptococcus neoformans) did it give?
A: The MIC was 50 µg/mL (≈ 238 µM).

Q: And the Activity (Candida albicans)?
A: The Activity was “inactive”.

Q: What does the source list for `CC(C)C[C@@H]1NC(=O)CNC1=O`?
A: MIC (Cryptococcus neoformans): 25 µg/mL (≈ 147 µM); Activity (Candida albicans): inactive
